Source: patent US10864273B2, “Thiobase compounds for photodynamic therapy” (CASE WESTERN RESERVE UNIVERSITY, priority 2015, dated 2020)
Read-outs that look alike come from different tables or passages of the source.

How the values were obtained:
[1] = Femtosecond broadband transient absorption spectroscopy of the thiothymine series (intersystem crossing, triplet yield); format: physicochemical; settings: for τISC intersystem crossing lifetime: probe 600 nm
Protocol: Femtosecond transient absorption spectroscopy was performed using a Ti— Sapphire regenerative amplifier laser system (Libra-HE, Coherent, Inc.; 800 nm, 100 fs, 4.0 W at 1 kHz). 2.6 W of the 800 nm beam were used to pump an optical parametric amplifier (TOPAS, Quantronix/Light Conversion) to generate the excitation beam at selected wavelengths of 320, 335, and 360 nm. Contributions to the excitation beam from other wavelengths and polarizations were removed by a reflective wavelength filter (λ-filter) and a Glan-Taylor polarizer, respectively, and the polarization was randomized using a depolarizing plate in order to prevent rotational effects from contributing to the dynamics, as described in details elsewhere.
A Helios spectrometer (Ultrafast Systems, LLC.) was used for pump-probe measurements. A fraction of the fundamental (800 nm) beam from the Libra-HE was used to generate white light continuum (WLC). The Helios spectrometer uses an optical delay line with a maximum delay of ˜3 ns for the 800 nm beam, which was used to pump a continuously-moving 2 mm CaF2 plate for generation of the WLC broadband probe pulse covering the spectral range from ˜320-700 nm. The probe light was then passed through a 730 nm low-pass dichroic optical filter, so as to block residual fundamental beam and to avoid saturating the complementary metal-oxide-semiconductor (CMOS) detectors. The probe pulse was then split into two beams, both of which were recollimated and focused into the optical fibers leading to their respective CMOS detectors. In this setup, one of the beams serves as reference, while the other is used to probe the sample of interest. A synchronized chopper wheel was used to block every other pump pulse, such that the difference in absorption between two consecutive measurements gives the transient spectrum. The excitation beam was attenuated to 1 μJ/pulse at the sample using a neutral density optical filter before entering the spectrometer. The excitation pulse was focused to a beam diameter three times larger than that of the probe beam at the sample position. Detection time windows of 20 and 200 ps were used in this work.
All solutions were prepared using pH 7.4 aqueous phosphate buffer, with a total phosphate concentration of 16 mM. The solution was continuously stirred in a 2 mm optical path length quartz cell (Starna Cells, Inc.) using a Teflon-coated magnetic stirring bar so as to bring fresh sample to the pump-probe region for each measurement. The solution in the cuvette was replaced with a fresh sample, from the same stock solution, every 5-7 scans, so that all scans had no more than 5% decrease in absorbance at the lowest-energy absorption-band maximum as determined by steady-state absorption spectroscopy.
All broadband transient absorption data were corrected for group velocity dispersion (GVD) of the WLC using a home-made LabView program (National Instruments, Inc.) as previously described. 3 Analysis of transient absorption kinetics was performed in Igor Pro 6.32A (WaveMetrics, Inc.) using the target analysis method, as described previously, and a sequential kinetic model convoluted with an instrument response function of ˜200 fs (FWHM). The instrument response was determined from the coherence signal of neat methanol generated at the sample cell. Global fitting analysis was performed using 15 to 30 representative kinetic traces covering the full range of probe wavelengths. At least three independent datasets (i.e., recorded on three different days) were used in the analysis and all uncertainties are reported as twice the standard deviation of the average lifetime. Decay associated spectra shown in FIG. 7A were extracted from the global fitting analysis of the transient decay traces taken every third probe wavelength across the entire WLC range.

[2] = Singlet oxygen quantum yield by phosphorescence at 1270 nm, thiothymine series; format: physicochemical; settings: for ΦΔ singlet oxygen quantum yield: O2-saturated acetonitrile solution, 355 nm excitation, phenalenone standard
Protocol: Singlet oxygen phosphorescence measurements were performed using a modified Fluorolog-3 spectrometer (HORIBA, Jobin Yvon) in conjunction with a NIR sensitive photomultiplier tube (H10330A-45, Hamamatsu). A 450 W Xe lamp was used for steady state excitation to record singlet oxygen phosphorescence spectra and a Spectra Physics GCR-150-30 Nd:YAG laser (355 nm, 7 ns pulse width) was used for pulsed excitation to collect singlet oxygen phosphorescence decay traces at 1270 nm, which were stored on a digital oscilloscope (TDS 360, Tektronics).
O2-saturated acetonitrile solutions of the thiobases and standard (phenalenone) with matching absorbance at 355 nm (O.D.=0.3 at 1 cm optical path length) were prepared. The measurements were performed in a 1×1 cm quartz cell. Singlet oxygen quantum yields were determined from the phosphorescence intensity at 1270 nm at the end of the laser pulse using phenalenone as standard (ΦΔ=0.98).
While ultrafast internal conversion to the ground state and the low triplet yield in thymidine provide the nucleobase with its high degree of photostability, the near-unity triplet yields in the thiothymine series account for their potent photo-sensitization properties. We have obtained evidence for significant photoreactivity of these triplet states by performing time-resolved energy transfer experiments to molecular oxygen, thus generating singlet oxygen, as monitored by its characteristic phosphorescence at 1270 nm (FIG. 3 and FIG. 4). The singlet oxygen quantum yields for 4tThd and 2,4dtThy were determined using phenalenone as a standard (ΦΔ=0.98) and are summarized in Table 1. It should be remarked that quantification of the singlet oxygen yield is one of the primary methods used to determine the efficacy of a prospective photosensitizer for phototherapeutic applications. To our knowledge, this is the first work to report the singlet oxygen yield of 2,4dtThy. […] Consistent with the spectroscopic analysis herein, the singlet oxygen yield of 2tThy is smaller than those of 4tThd and 2,4dtThy.

[3] = Estimated maximum UVA treatment depth in tissue from absorption cutoff and penetration depth curve; settings: cutoff ε=1000 M^−1 cm^−1
Excerpt: Longer wavelengths of light are able to penetrate deeper into tissues due to less scattering and reduced absorption by natural biomolecules (FIG. 5). Therefore, the redshifted absorption of 2,4dtThy as compared to 4tThd opens up the possibility for it to be effectively used as a photosensitizer in deeper tissue UVA-activated therapies. The maximum treatment depth for these two compounds was estimated by defining an arbitrary absorption cutoff of ε=1000 M^−1 cm^−1 (i.e., 371 nm for 4tThd and 395 nm for 2,4dtThy; FIG. 5). […] In order to account for this, the area under the penetration depth curve (FIG. 5) was integrated up to the respective absorption cutoff for each compound. Using this integration method the total increase in treatment depth of 2,4dtThy relative to 4tThd was determined to be about 67%. This increase likely serves as an upper bound limit for the actual relative increase because the molar absorptivity coefficients of the compounds will no doubt play a role. However, because the absorption of radiation at a given wavelength is not only dependent on a photosensitizer's molar absorptivity coefficients but also on its concentration in the tissue, our best estimation is that 2,4dtThy could facilitate UVA-activated treatment in tissues 23 to 67% deeper than those that can be effectively treated by 4tThd.

[4] = Steady-state absorption spectroscopy, thymine series; format: physicochemical; settings: phosphate buffer solution at pH 7.4
Excerpt: 2-thiothymine (2tThy, 98% purity) was obtained from AK Scientific, 4-thiothymidine (4tThd, 99% purity) was obtained from Carbosynth Ltd., and 2-thiothymidine (2tThd) and 2,4-dithiothymine (2,4dtThy) were obtained from Sigma Aldrich. All compounds were used as received. The purity of these compounds was ensured by using fluorescence spectroscopy and by comparison with the published absorption maxima and their corresponding extinction coefficients. Phosphate buffer solutions were freshly prepared using 0.12 g of sodium dihydrogen phosphate and 0.089 g of disodium hydrogen phosphate dissolved in 100 mL of ultrapure water and adjusted to pH 7.4 using a 2 M NaOH solution. Steady-state absorption spectra were measured using a Cary 100 Bio spectrometer. All absorption spectra were corrected for the solvent background by subtraction of the absorption of the solvent.
Specifically, sulfur substitution of the C2 carbonyl in thymine results in about a 10 nm redshift in the absorption maximum, whereas substitution at the C4 position results in a redshift of about 70 nm. Remarkably, double-substitution results in about a 100 nm redshift of the lowest-energy absorption band of thymidine (ΔE=9905 cm^−1), without an appreciable change in the magnitude of the extinction coefficient at the corresponding wavelengths (1×10^4 M^−1 cm^−1). Replacement of an oxygen atom by a sulfur atom in a carbonyl bond is expected to shift the absorption spectrum to the red because the thiocarbonyl is weaker than the carbonyl bond and the excited electronic states in thiocarbonyl compounds are typically found at lower energies. However, the difference in bond strengths between a carbonyl and thiocarbonyl bond cannot solely explain the large spectral shift observed between 2tThy/2tThd and 4tThd. Furthermore, the redshift in the absorption spectrum of 2,4dtThy cannot simply be expressed as a linear combination of the absorption spectra of the 2tThy/2tThd and 4tThd derivatives. […] Glycosylation of 2tThy, generating 2tThd, results in a 2 nm redshift in the absorption maximum and about 2-fold increase in the molar absorptivity coefficients (FIG. 1B). The same effect has been previously documented in the natural bases and in other thiobases. Therefore, glycosylation of 2,4dtThy to form 2,4-dithiothymidine is expected to redshift the absorption spectrum slightly and to increase the molar absorptivity coefficients.

cancerous cell lines = settings: in conjunction with a low dose of UVA radiation; in vitro; cited from earlier work
[5] = cited from earlier work
3D human skin models = settings: in conjunction with a low dose of UVA radiation; lower epidermis of 3D human skin models; cited from earlier work
[6] = pH 7.4 phosphate buffer solution; previously reported values; cited from earlier work
bladder cancer = settings: in conjunction with a low dose of UVA radiation; animal models; cited from earlier work
[7] = O2-saturated acetonitrile solution; previously measured / standard value; cited from earlier work
[8] = O2-saturated acetonitrile; literature / standard value; cited from earlier work
[9] = pH 7.4 phosphate buffer solution

SMILES	increase in rate of intersystem crossing going from 2-thiothymine [1] [fold]	intersystem crossing rate increase relative to Thd [1] [fold]	triplet yield [1]	ΦT triplet quantum yield [1, 9]	τISC intersystem crossing lifetime [1, 9] [fs]	1O2 yield lower than that of the corresponding thiouracil derivative [2] [%]	singlet oxygen yield [2] [%]	ΦΔ singlet oxygen quantum yield [2]	wavelength at arbitrary absorption cutoff [3] [nm]	maximum of lowest-energy absorption band [4] [nm]	ε at maximum of lowest-energy absorption band [4]	killing of cancerous cell lines (cancerous cell lines)	triplet-triplet extinction coefficient ([5]; at 520 nm, previously reported, own determination in agreement) [M⁻¹ cm⁻¹]	reported triplet yield of the reference compound ([5]; reference for relative actinometry)	induction of cytotoxic lesions (3D human skin models)	ΦT triplet quantum yield [6]	treatment of bladder cancer (bladder cancer)	ΦΔ singlet oxygen quantum yield [7]	ΦΔ singlet oxygen quantum yield [8]
Cc1c[nH]c(=S)[nH]c1=S [2,4dtThy, 2,4-dithiothymine]	3.5	4.2	approximately 90%	>0.9	180±40	6	~50	0.46 ± 0.02	395	363	≈ 9.7×10^3 M^−1 cm^−1	–	–	–	–	–	–	–	–
Cc1cn([C@H]2C[C@H](O)[C@@H](CO)O2)c(=O)[nH]c1=S [4tThd, 4-thiothymidine]	–	3.2	–	–	240 ± 20	14	–	0.42 ± 0.02	371	–	–	effectively kill cancerous cell lines in vitro	2500 ± 700	1.0±0.1	induce cytotoxic lesions in the lower epidermis of 3D human skin models	0.85 ± 0.15	treat bladder cancer in animal models	–	–
O=C1C=Cc2cccc3cccc1c23 [phenalenone]	–	–	–	–	–	–	–	–	–	–	–	–	–	–	–	–	–	0.98	0.98
